Assay results published in patent publication US20110318741A1, “BIOMARKERS FOR THE TREATMENT OF PSORIASIS” (priority 2010, published 2011).

Tested on: proinflammatory gene products in psoriasis lesional skin
Experiment: mRNA abundance of inflammatory molecules in skin biopsies by real-time RT-PCR, normalized to hARP
Type: in vivo, human
Details: for IL-22/hARP: Gene Expression Median Change (%) / IL-2/hARP: Gene Expression Median Change (%) / p40/hARP: Gene Expression Median Change (%) / CD83/hARP: Gene Expression Median Change (%) / IFNγ/hARP: Gene Expression Median Change (%) / iNOS/hARP: Gene Expression Median Change (%) / DEFB4/hARP: Gene Expression Median Change (%) / IL-17A/hARP: Gene Expression Median Change (%) / CXCL9/hARP: Gene Expression Median Change (%) / MX1/hARP: Gene Expression Median Change (%) / TNFα/hARP: Gene Expression Median Change (%) / IL-8/hARP: Gene Expression Median Change (%) / IL-10/hARP: Gene Expression Median Change (%) / K16/hARP: Gene Expression Median Change (%) / p19/hARP: Gene Expression Median Change (%): 20 mg BID, subjects also with PASI values
Method: mRNA abundance for a variety of inflammatory molecules was measured by real-time RT-PCR and expression was normalized to the house-keeping gene HARP (human acidic ribosomal protein). Inflammatory markers assessed by mRNA levels included the chemokine CXCL9, beta-defensin (DEFB4), interferon-gamma, IL-10, IL-17a, IL-22, IL-8, keratin 16, MX-1, IL-12/23 p40, IL-23 p19, iNOS and TNF. These are inflammatory molecules produced by activated DC populations, Th1, Th17, Th22 T-cells and response genes to interferon (MX-1. CXCL9) or IL-17 (defensin). Keratin 16 was also measured by mRNA levels to assess the epidermal response by an alternate means.
The pharmacodynamic effects of (S)—N-(2-(1-(3-ethoxy-4-methoxyphenyl)-2-(methylsulfonyl)ethyl)-1,3-dioxoisoindolin-4-yl)acetamide were studied in skin biopsies from subjects treated with the compound in a phase 2, multi-center, open-label study evaluating the safety, tolerability, and efficacy of the compound in recalcitrant psoriasis vulgaris. Skin biopsies were taken from uninvolved and involved skin at baseline, and from involved skin after treatment with (S)—N-(2-(1-(3-ethoxy-4-methoxyphenyl)-2-(methylsulfonyl)ethyl)-1,3-dioxoisoindolin-4-yl)acetamide 20 mg BID after 4 and 12 weeks.
The expression of proinflammatory gene products known to be involved in the pathogenesis of psoriasis was measured by real-time polymerase chain reaction (RT-PCR). With regard to gene expression, there were reductions in iNOS and IL-12/IL-23 p40 mRNAs along with reductions in IL-17A and IL-22 mRNAs, indicating inhibition of the Th1, Th17, and Th22 pathways (FIG. 5). […] Normalized IL-17A mRNA levels were reduced by 49% at week 12 and normalized IL-22 mRNA levels were reduced by 100% at week 12. DEFB4, a defensin induced in keratinocytes by IL-17, was reduced by 55% in week 4 biopsies and by 82% in week 12 biopsies. IL-8, which is induced in keratinocytes by IL-17, was reduced by 76% in week 4 biopsies and by 66% in week 12 biopsies.

CCOc1cc([C@@H](CS(C)(=O)=O)N2C(=O)c3cccc(NC(C)=O)c3C2=O)ccc1OC [(S)—N-(2-(1-(3-ethoxy-4-methoxyphenyl)-2-(methylsulfonyl)ethyl)-1,3-dioxoisoindolin-4-yl)acetamide]
IL-22/hARP: Gene Expression Median Change (%) (Week 4, No. 10): −74.4% | IL-2/hARP: Gene Expression Median Change (%) (Week 4, No. 12): 3.33% | p40/hARP: Gene Expression Median Change (%) (Week 4, No. 13): −100% | CD83/hARP: Gene Expression Median Change (%) (Week 4, No. 15): −12.4% | IFNγ/hARP: Gene Expression Median Change (%) (Week 4, No. 15): −38.2% | iNOS/hARP: Gene Expression Median Change (%) (Week 4, No. 15): −61.0% | DEFB4/hARP: Gene Expression Median Change (%) (Week 4, No. 16): −55.4% | IL-17A/hARP: Gene Expression Median Change (%) (Week 4, No. 16): −72.5% | CXCL9/hARP: Gene Expression Median Change (%) (Week 4, No. 17): −30.7% | MX1/hARP: Gene Expression Median Change (%) (Week 4, No. 17): −51.1% | TNFα/hARP: Gene Expression Median Change (%) (Week 4, No. 17): −13.0% | IL-8/hARP: Gene Expression Median Change (%) (Week 4, No. 18): −76.4% | IL-10/hARP: Gene Expression Median Change (%) (Week 4, No. 18): −49.1% | K16/hARP: Gene Expression Median Change (%) (Week 4, No. 18): −62.0% | p19/hARP: Gene Expression Median Change (%) (Week 4, No. 18): −53.4% | CXCL9 (MIG) mRNA: Median % change from baseline (normalized to hARP) (Week 4, 20 mg b.i.d.): −30.7% | DEFB4 mRNA: Median % change from baseline (normalized to hARP) (Week 4, 20 mg b.i.d.): −55.4% | IFN-g mRNA: Median % change from baseline (normalized to hARP) (Week 4, 20 mg b.i.d.): −38.2% | IL-8 mRNA: Median % change from baseline (normalized to hARP) (Week 4, 20 mg b.i.d.): −76.4% | IL-10 mRNA: Median % change from baseline (normalized to hARP) (Week 4, 20 mg b.i.d.): −49.1% | IL-12/IL-23 p40 mRNA: Median % change from baseline (normalized to hARP) (Week 4, 20 mg b.i.d.): −100% | IL-17A mRNA: Median % change from baseline (normalized to hARP) (Week 4, 20 mg b.i.d.): −72.5% | IL-22 mRNA: Median % change from baseline (normalized to hARP) (Week 4, 20 mg b.i.d.): −74.4% | IL-23p19 mRNA: Median % change from baseline (normalized to hARP) (Week 4, 20 mg b.i.d.): −53.4% | K-16 mRNA: Median % change from baseline (normalized to hARP) (Week 4, 20 mg b.i.d.): −62.0% | MX-1 mRNA: Median % change from baseline (normalized to hARP) (Week 4, 20 mg b.i.d.): −51.1% | iNOS mRNA: Median % change from baseline (normalized to hARP) (Week 4, 20 mg b.i.d.): −61.0% | median reduction in normalized MX-1 mRNA (Week 4, 20 mg b.i.d.): 51% | reduction of normalized iNOS mRNA expression (Week 4, 20 mg b.i.d.): 61% | IL-22/hARP: Gene Expression Median Change (%) (Week 12, No. 6): −100% | p40/hARP: Gene Expression Median Change (%) (Week 12, No. 7): −51.5% | DEFB4/hARP: Gene Expression Median Change (%) (Week 12, No. 10): −82.0% | IL-2/hARP: Gene Expression Median Change (%) (Week 12, No. 10): −25.0% | IL-17A/hARP: Gene Expression Median Change (%) (Week 12, No. 10): −46.7% | CD83/hARP: Gene Expression Median Change (%) (Week 12, No. 11): 27.39% | CXCL9/hARP: Gene Expression Median Change (%) (Week 12, No. 11): −15.8% | MX1/hARP: Gene Expression Median Change (%) (Week 12, No. 11): −51.5% | iNOS/hARP: Gene Expression Median Change (%) (Week 12, No. 11): −100% | IFNγ/hARP: Gene Expression Median Change (%) (Week 12, No. 12): −15.3% | TNFα/hARP: Gene Expression Median Change (%) (Week 12, No. 13): −41.3% | IL-8/hARP: Gene Expression Median Change (%) (Week 12, No. 14): −79.2% | IL-10/hARP: Gene Expression Median Change (%) (Week 12, No. 14): −15.3% | K16/hARP: Gene Expression Median Change (%) (Week 12, No. 14): −82.5% | p19/hARP: Gene Expression Median Change (%) (Week 12, No. 14): −67.9% | CXCL9 (MIG) mRNA: Median % change from baseline (normalized to hARP) (Week 12, 20 mg b.i.d.): −36.4% | DEFB4 mRNA: Median % change from baseline (normalized to hARP) (Week 12, 20 mg b.i.d.): −82.3% | IFN-g mRNA: Median % change from baseline (normalized to hARP) (Week 12, 20 mg b.i.d.): −37.6% | IL-8 mRNA: Median % change from baseline (normalized to hARP) (Week 12, 20 mg b.i.d.): −66.5% | IL-10 mRNA: Median % change from baseline (normalized to hARP) (Week 12, 20 mg b.i.d.): −26.5% | IL-12/IL-23 p40 mRNA: Median % change from baseline (normalized to hARP) (Week 12, 20 mg b.i.d.): −86.7% | IL-17A mRNA: Median % change from baseline (normalized to hARP) (Week 12, 20 mg b.i.d.): −49.4% | IL-22 mRNA: Median % change from baseline (normalized to hARP) (Week 12, 20 mg b.i.d.): −100% | IL-23p19 mRNA: Median % change from baseline (normalized to hARP) (Week 12, 20 mg b.i.d.): −68.3% | K-16 mRNA: Median % change from baseline (normalized to hARP) (Week 12, 20 mg b.i.d.): −78.6% | MX-1 mRNA: Median % change from baseline (normalized to hARP) (Week 12, 20 mg b.i.d.): −52.6% | iNOS mRNA: Median % change from baseline (normalized to hARP) (Week 12, 20 mg b.i.d.): −100% | median reduction in K16 mRNA (Week 12, 20 mg b.i.d.): 78% | reduction in normalized MX-1 mRNA (Week 12, 20 mg b.i.d.): 52%
